One assay concerns the target T1, recombinant rat FAAH (Rattus norvegicus, UniProt P97612).
T1 construct: expressed in transfected cells; host or cells: COS-7 cells, transient, pcDNA3; dounce-homogenised cell extract
T1 sequence (P97612 1-579): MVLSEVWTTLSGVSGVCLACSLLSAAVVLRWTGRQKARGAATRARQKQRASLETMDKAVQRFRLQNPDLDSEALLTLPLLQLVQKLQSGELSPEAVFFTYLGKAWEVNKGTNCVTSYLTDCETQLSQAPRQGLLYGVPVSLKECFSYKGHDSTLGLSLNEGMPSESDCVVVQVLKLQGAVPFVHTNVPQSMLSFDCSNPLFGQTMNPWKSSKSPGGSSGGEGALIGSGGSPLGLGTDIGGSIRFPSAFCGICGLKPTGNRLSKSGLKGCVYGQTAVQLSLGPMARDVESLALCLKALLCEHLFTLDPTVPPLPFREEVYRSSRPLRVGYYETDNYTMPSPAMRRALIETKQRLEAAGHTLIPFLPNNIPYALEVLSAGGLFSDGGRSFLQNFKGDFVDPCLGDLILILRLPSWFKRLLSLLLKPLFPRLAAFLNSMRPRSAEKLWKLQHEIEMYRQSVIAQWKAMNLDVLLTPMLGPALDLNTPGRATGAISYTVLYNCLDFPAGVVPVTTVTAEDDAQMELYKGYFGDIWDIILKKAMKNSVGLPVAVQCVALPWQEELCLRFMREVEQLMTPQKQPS
The experiment in a line: oleamide hydrolase activity of rat FAAH-transfected COS-7 cell extract and its inhibition (TLC). Conditions: versus untransfected and control transfected cells. Type of assay: biochemical. The method, then: The following thin layer chromatography (TLC) protocol is used for assaying cis-9,10 octadecenoamide hydrolysis activity, also referred to as fatty-acid amide hydrolase activity. Oleamide is first labeled with ^14C. To accomplish this, ^14C-Oleic acid (1-10 μM, Moravek Biochemicals, 5-50 μCi/μM) in CH2CL2 (200 μL, 0.005-0.05 M) at 0° C. was treated with excess oxalyl chloride and the reaction mixture was warmed to 25° C. for 6 hours. The reaction mixture was then concentrated under a constant stream of gaseous nitrogen and the remaining residue was cooled to 0° C. and treated with excess saturated aqueous ammonium hydroxide. After 5 minutes, the reaction mixture was partitioned between Et)Ac (1.5 mL) and 10% HCl (1.0 mL). The organic layer was then washed with water (1.0 mL) and concentrated under a constant stream of gaseous nitrogen to provide ^14C-oleamide in quantitative yield as judged by TLC (60% EtOAc in hexanes; oleamide Rf−0.2; oleic acid Rf−0.8). […]
While untransfected COS-7 cells contained negligible amounts of oleamide hydrolase activity, COS-7 cells transfected with the rat FAAH cDNA expressed high levels of oleamide hydrolase activity (FIG. 15A). The assay was performed as described in Section B where by TLC the conversion of oleamide to oleic acid was assessed. […]

For assay [1], the target named is T2, recombinant expressed rat FAAH (Rattus norvegicus, UniProt P97612).
T2 construct: expressed in transfected cells; host or cells: COS-7 cells, transient, pcDNA3; dounce-homogenised cell extract
T2 sequence (P97612 1-579): T1 sequence (P97612 1-579)
The experiment in a line: FAAH hydrolysis assays with 14C-labeled fatty acid amide substrates (TLC, scintillation counting). The assay is classed as biochemical. Conditions: 100 μM substrate. Here is the method: Therefore, COS-7 cells transfected with the rat FAAH cDNA were assayed for anandamide hydrolase activity. To assess the enzymatic activity of the expressed recombinant fatty acid amide hydrolases of this invention on labeled anandamide, the following enzymatic assay was performed. ^14C-anandamide was synthesized as follows: 12.5 μCi (specific activity of 50 μCi/μM) of ^14C arachidonic acid (Moravek Biochemicals) was dissolved in 100 μl CH2Cl2, cooled to 0° C., and treated with excess oxalyl chloride. The reaction mixture was stirred at 25° C. for 6 hours, after which time the solvent was evaporated. The remaining residue was cooled to 0° C., treated with a large excess of ethanolamine, and stirred at 25° C. for 15 minutes. The reaction mixture was then partitioned between ethyl acetate and 2 M HCl, and the organic layer was washed with water and then evaporated to dryness. The resulting ^14C-anandamide was diluted with unlabeled anandamide to a final specific activity of 5 μCi/μM in ethanol. Approximately 1 μCi of ^14C-anandamide and 20 μl of dounce homogenized COS-7 cell extract were used for each anandamide hydrolase assay as detailed above for the oleamide hydrolase assays. Briefly, FAAH hydrolysis assays were conducted in triplicate with 100 μM substrate, 35 μg of rat transfected COS-7 cell protein for 5 minutes at 37° C. (except in the case of stearic amide, where due to low solubility, 20 μM substrate comparison to oleamide were conducted). Products were separated on TLC as described previously, scraped into scintillation fluid, and radioactivity was quantitated by scintillation counting. Substrate hydrolysis in the presence of equal amounts of untransfected COS-7 cell protein extract served as background control in all cases and was substracted from FAAH hydrolysis rates to give the data as presented below.
To further assess the substrate specificity spectrum of enyzmatic hydolytic activity of the recombinant expressed proteins of this invention, other ^14C-labeled fatty acid amides were synthesized as described in Section B6 and above for ^14C-oleamide, with the exception of anandamide as described.
Where indicated in the table the anandamide and oleamide hydrolysis rates are considered to be 100% of FAAH activity to which other fatty acid amide hydrolysis rates are compared.

The subject of another assay is neuroblastoma cells. The conditions noted are these: anandamide incubated with neuroblastoma cells; cited from earlier work.

Regarding `CCCCC/C=C\C/C=C\C/C=C\C/C=C\CCCC(=O)NCCO` [Anandamide, arachidonylethanolamide], the “conversion of labeled substrate by rat FAAH-transfected COS-7 cells (qualitative, TLC)” value on recombinant rat FAAH is given as “high levels of anandamide hydrolase activity”. In addition, the “% of FAAH activity (anandamide hydrolysis rate = 100%)” value in assay [1] was determined as 100%. In addition, in assay [1] (35 μg transfected COS-7 cell protein, 5 minutes, 37° C.), the “Rate of Hydrolysis” value was 333 ± 30 nmol/min/mg.
As for arachidonyl trifluoromethyl ketone, the “increase of anandamide levels in the presence of the inhibitor” value in the assay on neuroblastoma cells is 5 fold.

These data come from patent US6699682B2, “Assay for inhibitors of fatty-acid amide hydrolase” (The Scripps Research Institute, priority 1995, dated 2004).
